Patent publication US9738677B2, “Amphotericin B derivative with reduced toxicity” (priority 2014, dated 2017)

Columns and labels:
[1] = ITC sterol binding, POPC LUVs containing 10% ergosterol; settings: net exotherm vs sterol-free LUVs
Method: (§1) Isothermal Titration calorimetry (ITC)
(§2) In an optimized isothermal titration calorimetry (ITC)-based assay, an aqueous solution of AmB was titrated with a suspension of large unilamellar vesicles (LUVs) comprised of only 1-palmitoyl-2-oleoyl-sn-glycero-3-phosphocholine (POPC), and the net exotherm was recorded. The titration was repeated using POPC LUVs containing 10% ergosterol. […] The titration was repeated using C2′epiAmB. […] The ITC assay was also conducted with cholesterol in place of ergosterol.
(§3) Experiments were performed using a NanoITC isothermal titration calorimeter (TA Instruments, Wilmington, Del.). Solutions of the compounds to be tested were prepared by diluting a 60.0 mM stock solution of the compound in DMSO to 600 μM with K buffer (5.0 mM HEPES/KHEPES, pH=7.4). The final DMSO concentration in the solution was 1% v/v. Large unilamellar vesicles comprised of only 1-palmitoyl-2-oleoyl-sn-glycero-3-phosphocholine (POPC LUVs) were prepared and phosphorus and ergosterol content was quantified as described below. The LUV solutions were diluted with buffer and DMSO to give a final phospholipid concentration of 12.0 mM in a 1% DMSO/K buffer solution. Immediately prior to use, all solutions were incubated at 37° C. for 30 minutes and degassed under vacuum at 37° C. for 10 minutes. The reference cell of the instrument (volume=0.190 mL) was filled with a solution of 1% v/v DMSO/K buffer.
(§4) Palmitoyl oleoyl phosphatidylcholine (POPC) was obtained as a 20 mg/mL solution in CHCl3 from Avanti Polar Lipids (Alabaster, Ala.) and was stored at −20° C. under an atmosphere of dry argon and used within 1 month. […]
Ergosterol content was determined spectrophotometrically. […] The solutions were then analyzed by UV/Vis spectroscopy and the concentration of ergosterol in solution was determined by the extinction coefficient of 10400 L mol^−1 cm^−1 at the UVmax of 282 nm and was compared to the concentration of phosphorus to determine the percent sterol content. The extinction coefficient was determined independently in the above ternary solvent system. […]

[2] = system: human red blood cells; assay: Minimum hemolysis concentration (MHC) assay; type: cell-based; settings: concentration causing 90% hemolysis of human red blood cells, 2 hours, 37° C.
Method: The protocol for the hemolysis assay was adapted from the report of Paquet and coworkers. […] Whole human blood (sodium heparin) was purchased from Bioreclamation LLC (Westbury, N.Y.) and stored at 4° C. and used within two days of receipt. To a 2.0 mL Eppendorf tube, 1 mL of whole human blood was added and centrifuged at 10,000 g for 2 minutes. The supernatant was removed and the erythrocyte pellet was washed with 1 mL of sterile saline and centrifuged at 10,000 g for 2 minutes. The saline wash was repeated for a total of three washes. The erythrocyte pellet was suspended in 1 mL of RBC buffer (10 mM NaH2PO4, 150 mM NaCl, 1 mM MgCl2, pH 7.4) to form the erythrocyte stock suspension.
Positive and negative controls were prepared by adding 1 μL of DMSO to MilliQ water or RBC buffer, respectively to 0.2 mL PCR tube. To each PCR tube, 0.63 μL of the erythrocyte stock suspension was added and mixed by inversion. The samples were incubated at 37° C. for 2 hours. The samples were mixed by inversion and centrifuged at 10,000 g for 2 minutes. 15 μL of the supernatant from each sample was added to a 384-well place. Absorbances were read at 540 nm using a Biotek H1 Synergy Hybrid Reader (Wanooski, Vt.). Experiments were performed in triplicate and the reported MHC represents an average of three experiments.
Percent hemolysis was determined according to the following equation:
[formula] […]

[3] = system: primary human renal proximal tubule epithelial cells; assay: WST-8 cell proliferation assay (MTC); type: cell-based
Method: WST-8 Cell Proliferation Assays
Primary human renal proximal tubule epithelial cells (RPTECs) were purchased from ATCC (Manassas, Va.) and immediately cultured upon receipt. Complete growth media was prepared using renal epithelial cell basal medium (ATCC, PCS-400-030), renal epithelial cell growth kit (ATCC, PCS-400-040), and penicillin-streptomycin (10 units/mL and 10 μg/mL). Complete media was stored at 4° C. in the dark and used within 28 days. Primary RPTECs were grown in CO2 incubator at 37° C. with an atmosphere of 95% air/5% CO2.
WST-8 cell proliferation assay kit (Ser. No. 10/010,199) was purchased from Cayman Chemical Company (Ann Arbor, Mich.) and stored at −20° C. and used within 6 months of receipt. WST-8 reagent and electron mediator solution were thawed and mixed to prepare the WST-8 reagent solution. The solution was stored at −20° C. and used within one week.
A suspension of primary RPTECs in complete growth media was brought to a concentration of 1×10^5 cells/mL. A 96-well plate was seeded with 99 μL of the cell suspension and incubated at 37° C. with an atmosphere of 95% air/5% CO2 for 3 hours. Positive and negative controls were prepared by seeding with 100 μL of the cell suspension or 100 μL of the complete media. Compounds were prepared as 5 mM (AmB), 20 mM (C2′deOAmB), and 50 mM (C2′epiAmB) stock solutions in DMSO and serially diluted to the following concentrations with DMSO: 50000, 40000, 30000, 20000, 10000, 8000, 6000, 4000, 3000, 2000, 1500, 1000, 800, 600, 400, 300, 200, 100, 50, 25, 10, 5, 2.5, 1, 0.5, 0.25, and 0.1 μM. 1 μL aliquots of each solution were added to the 96-well plate in triplicate, with each column representing a different concentration of the test compound. The 96-well plate was incubated at 37° C. with an atmosphere of 95% air/5% CO2 for 24 hours. […] Following incubation, the 96-well plate was mixed in a shaking incubator at 200 rpm for 1 minute and absorbances were read at 450 nm using a Biotek H1 Synergy Hybrid Reader (Wanooski, Vt.). […]

[4] = system: healthy mice; assay: Acute toxicity, single intravenous administration, lethality; type: in vivo, mouse; settings: healthy mice, single intravenous 4 mg/kg
Method: FIG. 8 is a graph depicting lethality in healthy mice resulting from single intravenous administrations in the doses indicated of AmB or C2′epiAmB.
In a separate experiment, acute toxicity was determined by single intravenous administration of AmB or C2′epiAmB to healthy mice, followed by monitoring for lethality.

[5] = system: renal cells; type: cell-based, human
Method: Cells were imaged using an AMG (Bothell, Wash.) EVOS fl Microscope. Images were taken using transmitted light at 10× objective.
(18) Due to the limited solubility of AmB and its derivatives in the renal cell media, 80 μM is the highest concentration we were able to study. At higher concentrations, the aggregate blocks the light path of the plate reader, giving false high absorbance readings.

[6] = previously found; cited from earlier work
[7] = previously found; cited from earlier work; remark: listed apart in the source
[8] = system: yeast; settings: previously found; cited from earlier work
[9] = ITC sterol binding, POPC LUVs containing 10% cholesterol; settings: within the limits of the binding assay
Method: as §1, §2, §3
as §4, with “month. A 4 mg/mL solution of ergosterol in CHCl3 was prepared monthly and stored at 4° C. under an atmosphere of dry argon.” for “month.”
NanoAnalyze software (TA Instruments) was used for baseline determination and integration of the injection heats, and Microsoft Excel was used for subtraction of dilution heats and the calculation of overall heat evolved. […] By this method, the overall heat evolved during the experiment was calculated using the following formula: […]

[10] = system: yeast; settings: reported by Carreira and coworkers; cited from earlier work
[11] = Chol-containing POPC liposomes, 1 μM; cited from earlier work

In the case of `C[C@@H]1[C@H](O)[C@@H](C)/C=C/C=C/C=C/C=C/C=C/C=C/C=C/[C@H](O[C@@H]2O[C@H](C)[C@@H](O)[C@H](N)[C@@H]2O)C[C@@H]2O[C@](O)(C[C@@H](O)C[C@@H](O)[C@H](O)CC[C@@H](O)C[C@@H](O)CC(=O)O[C@H]1C)C[C@H](O)[C@H]2C(=O)O` [AmB, amphotericin B], the “Binding to ergosterol (in words)” value [1] is reported as “significant increase in net exotherm”, the “MHC (minimum hemolytic concentration)” value [2] is reported as 8.5 µM and the “MTC (minimum toxic concentration)” value ([3]; concentration causing 90% loss of cell viability, primary human RPTECs, 24 hours) is reported as 2.4 µM. The Lethality [4] was “died within seconds”.
For `C[C@@H]1[C@H](O)[C@@H](C)C=CC=CC=CC=CC=CC=CC=C[C@H](O)C[C@@H]2O[C@](O)(C[C@@H](O)C[C@@H](O)[C@H](O)CC[C@@H](O)C[C@@H](O)CC(=O)O[C@H]1C)C[C@H](O)[C@H]2C(=O)O` [AmdeB, amphoteronolide B], the “Visual evidence of toxicity in microscope images of renal cells” value [5] is listed as “no visual evidence of toxicity”, the “Capacity to bind ergosterol (previous work)” value [6] is listed as “eliminates its capacity to bind both ergosterol and cholesterol” and the “Capacity to bind cholesterol (previous work)” value [7] is listed as “eliminates its capacity to bind both ergosterol and cholesterol”. For the same compound, the “Toxicity to yeast (previous work)” value [8] was “non-toxic to yeast”.
With `C[C@@H]1[C@H](O)[C@@H](C)/C=C/C=C/C=C/C=C/C=C/C=C/C=C/[C@H](O[C@H]2C[C@@H](N)[C@H](O)[C@@H](C)O2)C[C@@H]2O[C@](O)(C[C@@H](O)C[C@@H](O)[C@H](O)CC[C@@H](O)C[C@@H](O)CC(=O)O[C@H]1C)C[C@H](O)[C@H]2C(=O)O` [C2′deOAmB] the “Binding to cholesterol (in words)” value [9] was “do not bind cholesterol”, the “Toxicity to primary human renal proximal tubule epithelial cells (in words)” value ([3]; up to limits of solubility) was “no evidence of toxicity up to their limits of solubility” and the “Visual evidence of toxicity in microscope images of renal cells” value [5] was “no visual evidence of toxicity”.
For `COC(=O)[C@H]1[C@@H]2C[C@@H](O[C@@H]3O[C@H](C)[C@@H](O)[C@H](N)[C@H]3O)/C=C/C=C/C=C/C=C/C=C/C=C/C=C/[C@H](C)[C@@H](O)[C@@H](C)[C@H](C)OC(=O)C[C@H](O)C[C@H](O)CC[C@@H](O)[C@H](O)C[C@H](O)C[C@](O)(C[C@@H]1O)O2` [C2′epiAmE, C2′epiAmB methyl ester], the “Potency in yeast MIC assays compared to AmB” value [10] is listed as “equipotent to AmB” and the “Efflux of potassium ions” value [11] is listed as “caused efflux of potassium ions”.
